USRE39192E1, “Supplemented and unsupplemented tissue sealants, methods of their production and use” (American National Red Cross, priority 1990, dated 2006)

Columns and labels:
[1] = test system: NIH 3T3 cells; assay: 3H-thymidine incorporation assay with NIH 3T3 cells; assay type: cell-based; settings: after incubation with 250 U/ml thrombin and 5 U/ml heparin for 0, 24 or 72 hours
Procedure: FIG. 2. Graph ShowingReissue the incorporation of ^3H-thymidine as a function of relative HBGF-1β concentration. Samples of the HBGF-1β were incubated, as described in FIG. 1 and Example 2, in the presence of 250 U/ml thrombin and 5 U/ml heparin for 0, 24 or 72 hours. Dilutions of these samples were then added to NHI 3T3 cells, which were plated as described in Example 3. CPM is plotted v. HBGF-1 concentration.
The biological activity of HBGF-1 in the incubation mixture that contained 5 U/ml of heparin, and was described in Example 2, was measuring using an ^3H-thymidine incorporation assay with NIH 3T3 cells.
NIH 3T3 cells were introduced into 96 well plates and were incubated at 37° C. under starvation conditions in Dulbecco's Modified Medium (DMEM; GIBCO, Grand Island, N.Y.) with 0.5% […] bovine serum (BCS; GIBCO, Grand Island, N.Y.) until the cells reached 30 to 50% confluence. Two days later, varying dilutions of HBGF-1 from the samples prepared in Example 2 were added to each well without changing the medium. Diluent (incubation buffer) was added in place of growth factor for the negative controls and DMEM with 10% BCS, which contains growth factors needed for growth, was added in place of the HBGF-1 sample for the positive controls. […]

[2] = biological target: T1, thrombin (Homo sapiens, UniProt P00734); assay: Stability of HBGF-1β to thrombin in the presence of heparin (Western blot); assay type: biochemical; settings: heparin as low as 5U/ml; thrombin 250 U/ml; 37° C.
T1 construct: converts prothrombin into thrombin
Procedure: FIGS. 1A-1F show Western blots of gels on which samples containing HBGF-1β had been incubated with 250 U/ml thrombin in the presence of increasing concentrations of heparin. Solutions containing HBGF-1β (10 μg/ml), thrombin ([…]), and increasing concentrations of heparin (0, 0.5, 5, 10, 20, and 50 units/ml) were incubated at 37° C. for 72 hours. Aliquots were periodically removed from each of the incubating mixtures and were loaded onto 8% SDS polyacrylamide gels that were prepared and run as described by Laemmli (Nature 227:680 (1970)). The gel was then electroblotted onto nitrocellulose and the band corresponding to HBGF-1β was identified using an affinity-purified polyclonal rabbit antiserum to HBGF-1β.
The concentrations of heparin in the incubating mixtures were: panel A) 0 units/ml; panel B) 0.5 U/ml; Panel C) 5 U/ml; panel D) 10 U/ml; panel E) 20 U/ml; and panel F) 50 U/ml. […]
Similarly, the ability of a selected inhibitor to protect a growth factor from degradation by TS components may be assessed by any method known to those of skill in the art. […]
It was necessary to add an ingredient to the FG that would inhibit or prevent the digestion of HBGF-1β by thrombin (Lobb, Biochem. 27:2572-2578 (1988)), which is a component of FG. […] The stability of HBGF-1 in the presence of increasing concentrations of heparin was assessed. […]

- protection of HBGF-1β from digestion by thrombin [2]: protected from digestion by thrombin
Substance: HBGF-1: heparin binding growth factor-1, also known as ECGF and FGF-1; recombinant HBGF-1β expressed in E. coli
- biological activity (3H-thymidine incorporation) [1]: retained its biological activity
